We go through one compound from article doi:10.1101/2024.12.12.628185v1 (biorxiv, 2024).

The target of the assay is T1, ERα (purified full-length human ERα) (Homo sapiens, UniProt P03372).
T1 sequence (P03372 1-595): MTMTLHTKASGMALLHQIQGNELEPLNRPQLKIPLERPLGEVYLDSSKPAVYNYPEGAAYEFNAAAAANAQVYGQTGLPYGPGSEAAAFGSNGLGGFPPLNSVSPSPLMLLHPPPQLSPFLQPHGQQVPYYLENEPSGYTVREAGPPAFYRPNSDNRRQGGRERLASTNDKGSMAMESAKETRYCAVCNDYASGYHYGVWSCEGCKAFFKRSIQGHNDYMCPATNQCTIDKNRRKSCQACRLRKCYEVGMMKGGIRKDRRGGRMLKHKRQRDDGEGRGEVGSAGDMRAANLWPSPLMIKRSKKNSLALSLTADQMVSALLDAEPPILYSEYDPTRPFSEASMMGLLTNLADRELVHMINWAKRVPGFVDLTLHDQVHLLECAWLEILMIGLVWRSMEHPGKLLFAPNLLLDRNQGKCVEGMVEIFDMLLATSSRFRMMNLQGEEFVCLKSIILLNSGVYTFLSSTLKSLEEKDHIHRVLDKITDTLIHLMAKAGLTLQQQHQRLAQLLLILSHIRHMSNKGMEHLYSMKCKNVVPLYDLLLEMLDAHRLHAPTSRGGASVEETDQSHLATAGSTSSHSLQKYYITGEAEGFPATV
Briefly: biochemical. Format: binding.

Molecules are shown by their SMILES.

Regarding `CCCCC(CC)COC(=O)c1ccccc1C(=O)OCC(CC)CCCC` (stereo not shown) [DEHP], the IC50 was approximately 500 µM.
